# In PubChem BioAssay AID256 (DTP/NCI, 2004):
# “And” between values parts separate entries of the source, which are not always exact repeats. Identical values can stand only once. Toxic doses and inconclusive results are not listed.
# System: CD2F1 mice, L1210 leukemia ip, survival T/C
# Assay: NCI In Vivo Anticancer Drug Screen. Data for tumor model L1210 Leukemia (intraperitoneal) in CD2F1 (CDF1) mice
# Details: endpoint: mean survival time, higher = longer survival
# In short: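 Each value reflects a quotient of treated over vehicle control outcomes in mice with a transplanted tumor.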
# [1] = dose: 100.0 mg/kg/injection, schedule: Q01DX009 (ip), vehicle: saline
# [2] = dose: 200.0 mg/kg/injection, schedule: Q01DX009 (ip), vehicle: saline
# [3] = dose: 100.0 mg/kg/injection, schedule: Q04DX003 (ip), vehicle: saline with Tween-80
# [4] = dose: 50.0 mg/kg/injection, schedule: Q01DX009 (ip), vehicle: saline with Tween-80
# [5] = dose: 100.0 mg/kg/injection, schedule: Q01DX009 (ip), vehicle: saline with Tween-80
# [6] = dose: 100.0 mg/kg/injection, schedule: Q04DX003 (ip), vehicle: saline
compound,measurement,setting,value
CSc1nc(N)c2c(n1)nc(N(C)C)n2O,T/C,"dose: 12.5 mg/kg/injection, schedule: Q01DX005 (ip), vehicle: water",106 % of control
same,T/C,"dose: 25.0 mg/kg/injection, schedule: Q01DX005 (ip), vehicle: water",102 % of control
same,T/C,"dose: 50.0 mg/kg/injection, schedule: Q01DX005 (ip), vehicle: water",93 % of control
same,T/C,"dose: 100.0 mg/kg/injection, schedule: Q01DX005 (ip), vehicle: water",95 % of control
same,T/C,"dose: 200.0 mg/kg/injection, schedule: Q01DX005 (ip), vehicle: water",97 % of control
CCOC(=O)c1nc(N)c2c(CC#N)nn(-c3ccccc3)c2n1,T/C,"dose: 12.5 mg/kg/injection, schedule: Q01DX005 (ip), vehicle: other",90 % of control
same,T/C,"dose: 25.0 mg/kg/injection, schedule: Q01DX005 (ip), vehicle: other",93 % of control
same,T/C,"dose: 50.0 mg/kg/injection, schedule: Q01DX005 (ip), vehicle: other",93 % of control
same,T/C,"dose: 100.0 mg/kg/injection, schedule: Q01DX005 (ip), vehicle: other",87 % of control
same,T/C,"dose: 200.0 mg/kg/injection, schedule: Q01DX005 (ip), vehicle: other",93 % of control
OC1C2COC(O2)C(O)C1O (configuration not stated) (tested in a mixture with another compound),T/C,[1],93 % of control
same,T/C,[2],91 % of control
same,T/C,"dose: 400.0 mg/kg/injection, schedule: Q01DX009 (ip), vehicle: saline",91 % of control
CCOC(=O)CO,T/C,"dose: 50.0 mg/kg/injection, schedule: Q01DX009 (ip), vehicle: saline",104 % of control
same,T/C,[1],93 % of control
same,T/C,[2],101 % of control
CC(=O)Nc1ccc(C(=O)CCl)cc1,T/C,[3],90 % of control
OCCCc1nc2ccccc2[nH]1,T/C,[3],102 % of control
same,T/C,"dose: 200.0 mg/kg/injection, schedule: Q04DX003 (ip), vehicle: saline with Tween-80",107 % of control
same,T/C,"dose: 400.0 mg/kg/injection, schedule: Q04DX003 (ip), vehicle: saline with Tween-80",98 % of control
FC(F)(F)c1ccc2ccc3ccc(Cl)cc3c2c1,T/C,"dose: 37.5 mg/kg/injection, schedule: Q01DX009 (ip), vehicle: saline",97 % of control
same,T/C,"dose: 75.0 mg/kg/injection, schedule: Q01DX009 (ip), vehicle: saline",94 % of control
same,T/C,"dose: 75.0 mg/kg/injection, schedule: Q04DX003 (ip), vehicle: saline",91 % of control
same,T/C,"dose: 150.0 mg/kg/injection, schedule: Q01DX009 (ip), vehicle: saline",91 % of control
same,T/C,"dose: 150.0 mg/kg/injection, schedule: Q04DX003 (ip), vehicle: saline",95 % of control
same,T/C,"dose: 300.0 mg/kg/injection, schedule: Q04DX003 (ip), vehicle: saline",97 % of control
CC(CCc1ccccc1)NC(C)C(O)c1ccc(O)cc1 (configuration not stated),T/C,"dose: 25.0 mg/kg/injection, schedule: Q01DX009 (ip), vehicle: saline with Tween-80",102 % of control
same,T/C,[4],96 % of control
same,T/C,[5],102 % of control
same,T/C,[3],102 % of control
c1ccc(-c2c3ccccc3c(-c3ccccc3)c3c2ccc2ccccc23)cc1,T/C,"dose: 6.25 mg/kg/injection, schedule: Q01DX009 (ip), vehicle: Klucel (hydroxypropylcellulose) (HPC)",89 % of control
same,T/C,"dose: 12.5 mg/kg/injection, schedule: Q01DX009 (ip), vehicle: Klucel (hydroxypropylcellulose) (HPC)",89 % of control
same,T/C,"dose: 25.0 mg/kg/injection, schedule: Q01DX009 (ip), vehicle: Klucel (hydroxypropylcellulose) (HPC)",91 % of control
C=CCN(CC=C)C(=O)Nc1ccc(C)c(C)c1,T/C,[4],96 % of control
same,T/C,[5],92 % of control
same,T/C,"dose: 200.0 mg/kg/injection, schedule: Q01DX009 (ip), vehicle: saline with Tween-80",96 % of control
O=C(O)C(O)C(O)C(O)C(O)CO.O=C(O)C(O)C(O)C(O)C(O)CO.[NH-]C1CCCCC1[NH-].[Pt+2] (configuration not stated),T/C,"dose: 3.13 mg/kg/injection, schedule: Q04DX003 (ip), vehicle: other",123 % of control
same,T/C,"dose: 6.25 mg/kg/injection, schedule: Q04DX003 (ip), vehicle: saline",119 % of control
same,T/C,"dose: 12.5 mg/kg/injection, schedule: Q04DX003 (ip), vehicle: saline",166 % of control
same,T/C,"dose: 25.0 mg/kg/injection, schedule: Q04DX003 (ip), vehicle: other",162 % of control
same,T/C,"dose: 25.0 mg/kg/injection, schedule: Q04DX003 (ip), vehicle: saline",304 % of control
same,T/C,"dose: 50.0 mg/kg/injection, schedule: Q04DX003 (ip), vehicle: other",231 % of control
same,T/C,"dose: 50.0 mg/kg/injection, schedule: Q04DX003 (ip), vehicle: saline",281 % of control and 225 % of control
same,T/C,[6],306 % of control and 280 % of control
CCCCCCCC(=O)Nc1ccccc1F,T/C,[6],103 % of control
same,T/C,"dose: 200.0 mg/kg/injection, schedule: Q04DX003 (ip), vehicle: saline",103 % of control
same,T/C,"dose: 400.0 mg/kg/injection, schedule: Q04DX003 (ip), vehicle: saline",95 % of control
